Values joined by “and” are separate entries in the source; they are usually repeats but may differ in a detail not shown here. Identical values can stand only once.
Conditions: instrument: DT, stepped-field

Row | SMILES | collision cross section (N2) ([M+H]+) | collision cross section (N2) ([M+Na]+) | collision cross section (N2) ([M]+) [Å²]
1 | CCCCCCC/C=C\CCCCCCCC(=O)OC[C@H](COP(=O)(O)OCCN)OC(=O)CCCCCCC/C=C\CCCCCCCCC [PE(18:1/18:1)] | 280.6 Å² and 284.02 Å² | 287.57 Å² and 288.54 Å² | 
2 | C[n+]1cccc(C(=O)[O-])c1 [Trigonelline] | 126.37 Å² | 139.87 Å² | 
3 | C[S+](CC[C@H](N)C(=O)[O-])C[C@H]1O[C@@H](n2cnc3c(N)ncnc32)[C@H](O)[C@@H]1O (stereo partly drawn) [S-Adenosyl-L-methionine] | 186.46 Å² |  | 
4 | O=C(CO)[C@H](O)[C@H](O)COP(=O)(O)O [D-Ribulose 5-Phosphate] |  | 153.25 Å² | 
5 | CCCCCCSC[C@H](NC(=O)CC[C@H](N)C(=O)O)C(=O)NCC(=O)O [S-Hexyl-glutathione] | 203.2 Å² |  | 
6 | OC[C@H]1O[C@H](OC[C@H]2OC(O)(CO)[C@@H](O)[C@@H]2O)[C@H](O)[C@@H](O)[C@@H]1O (some centres undefined) [Palatinose] |  | 177.31 Å² | 
7 | OC[C@H]1O[C@H](O[C@H]2[C@H](O)[C@H](O)COC2(O)CO)[C@H](O)[C@@H](O)[C@@H]1O (stereo partly drawn) [D-(+)-Turanose] |  | 177 Å² | 
8 | O=C(O)c1cccnc1 [Nicotinic Acid] | 128.35 Å² |  | 
9 | CCCCC/C=C\C[C@H]1O[C@H]1C/C=C\C/C=C\CCCC(=O)O [11(12)-EET] |  | 187.87 Å² | 
10 | CCCCCCCCCCCCCCCCCCCCCCCC(=O)OC [Methyl Tetracosanoate] | 187.54 Å² |  | 
11 | O=C(O)C1=C[C@@H](O)[C@@H](O)[C@H](O)C1 [Shikimic Acid] | 149.5 Å² |  | 
12 | CC1(C)S[C@@H]2[C@H](NC(=O)[C@H](N)c3ccccc3)C(=O)N2[C@H]1C(=O)O [Ampicillin] | 193.17 Å² | 187.93 Å² | 
13 | CCCCCCCCCCC(=O)OC[C@H](COP(=O)([O-])OCC[N+](C)(C)C)OC(=O)CCCCCCCCCC [PC(11:0/11:0)] | 257.07 Å² | 260.59 Å² | 
14 | O=C(O)[C@H]1OC(O)[C@H](O)[C@@H](O)[C@@H]1O (stereo partly drawn) [D-Glucuronate] |  | 153.13 Å² | 
15 | CCCCC/C=C\C/C=C\C=C\[C@@H](O)C/C=C\CCCC(=O)O [8S-HETE] |  | 187.17 Å² | 
16 | CCCCC[C@H](O)/C=C/[C@@H]1[C@@H](C/C=C\CCCC(=O)O)[C@@H](O)C[C@H]1O [Prostaglandin F2a] |  | 205.7 Å² | 

Row | SMILES | collision cross section (N2) ([M+H]+) | collision cross section (N2) ([M+Na]+) | collision cross section (N2) ([M]+) [Å²]
17 | O=C(O)CCC(=O)O [Succinic Acid] | 122.66 Å² |  | 
18 | Cc1ccc2cc3ccccc3cc2c1 [2-Methylanthracene] | 138.61 Å² |  | 
19 | OC[C@H]1O[C@@H](O[C@H]2[C@H](O)[C@H](O)[C@H](O[C@H]3[C@H](O)[C@H](O)[C@H](O[C@H]4[C@H](O)[C@H](O)C(O)O[C@@H]4CO)O[C@@H]3CO)O[C@@H]2CO)[C@@H](O)[C@@H](O)[C@@H]1O (some centres undefined) [Mannotetraose] |  | 234.12 Å² | 
20 | O=C(O)[C@@H]1CCCCN1 [L-Pipecolic Acid] | 130.93 Å² |  | 
21 | CCCCC/C=C\C\C=C/C=C/C=C/[C@@H](SC[C@H](NC(=O)CC[C@H](N)C(=O)O)C(=O)NCC(=O)O)[C@@H](O)CCCC(=O)O [Leukotriene C4] | 257.4 Å² | 260.57 Å² | 
22 | CCCCCCCCCCCCCCCCCC(=O)O [Stearic Acid] |  | 191.83 Å² | 
23 | CCCCCCCCCCCCCCCCCCC(=O)OC[C@@H](O)COP(=O)([O-])OCC[N+](C)(C)C [LPC(19:0)] | 241.9 Å² |  | 
24 | CC(=O)N[C@@H]1C(O)O[C@H](CO)[C@@H](O)[C@@H]1O (stereo partly drawn) [N-Acetyl-D-mannosamine] |  | 154.76 Å² | 
25 | O=C1C(=O)c2cccc3cccc1c23 [Acenaphthenequinone] | 145.51 Å² |  | 
26 | NCCP(=O)(O)O [2-Aminoethylphosphonate] | 132.21 Å² |  | 
27 | NC(=O)CC[C@H](NC(=O)Cc1ccccc1)C(=O)O [Phenylacetyl L-Glutamine] | 160.93 Å² | 171.25 Å² | 
28 | N#Cc1c[nH]cc1-c1cccc2c1OC(F)(F)O2 [Fludioxonil] |  | 165.7 Å² | 
29 | CO[C@H]1/C=C/O[C@@]2(C)Oc3c(C)c(O)c4c(c3C2=O)C(=O)/C(=C/NN2CCN(C)CC2)C(=C4O)NC(=O)/C(C)=C\C=C\[C@H](C)[C@H](O)[C@@H](C)[C@@H](O)[C@@H](C)[C@H](OC(C)=O)[C@@H]1C [Rifampicin] | 287.13 Å² | 285.07 Å² | 
30 | OC[C@H]1OC(O)[C@H](O)[C@@H](O)[C@@H]1O (stereo partly drawn) [D-Glucose] |  | 147.72 Å² | 
31 | Oc1cc(O)c2cc(O)c(-c3ccc(O)c(O)c3)[o+]c2c1 [Cyanidin] |  |  | 168.33
32 | CC(=O)N[C@@H](C)C(=O)O [N-Acetyl-L-alanine] |  | 138.07 Å² | 
